Experimental data reported in patent US5006448A, “Photographic material and process” (Eastman Kodak Company, priority 1989, dated 1991).

Assay: Imbibition test of intrinsic inhibition strength of free inhibitors
Settings: inhibitor prebath 5×10^-5 M, pH 10 carbonate buffer plus 0.1% dimethylformamide, 38° C., 2 min
From the text: Development inhibitors are generally released imagewise from an incorporated DIR compound during processing of the exposed photographic element. To evaluate the intrinsic inhibition strength of such inhibitors, independent of DIR release, an imbibition test is used. This involves imbibing an exposed film strip with a solution containing a given concentration of the free inhibitor to be tested. Nitrogen burst agitation of the imbibing solution improves the repeatability and effectiveness of inhibitor incorporation. The measured strength obtained by this test serves as an important guide in selecting inhibitors for desired photographic acutance improvements.
Film samples for imbibition testing of inhibitors were prepared having the following schematic layer structure and using a silver bromoiodide emulsion containing 6.4 mole % iodide (numerical values denote coating coverages in mg/m^2 and the silver halide values are for equivalent weights of silver):
Film strips cut from this coated element were exposed through a graduated density test object and a Kodak Wratten 99 (green) filter. Before development a strip was immersed at 38° C. under nitrogen agitation in each of the separate prebaths containing a test inhibitor at 5×10^-5 M concentration in a pH 10 carbonate buffer plus 0.1% dimethylformamide. As controls, each test set included a check strip which was immersed in a prebath containing no inhibitor and strips immersed in prebaths containing the comparison inhibitors phenylmercaptotetrazole (CI-1) and ethylmercaptotetrazole (CI-2). Photographic processing was carried out at 38° C. in the following steps:
The density of each test strip at this same exposure was noted and the inhibition strength number (I.S. No.) calculated using the equation: [formula]
Larger I.S. numbers for given inhibitors indicate stronger inhibition resulting in less dye density formed. Table IV lists these […], as well as calculated log P values, for a number of inhibitors released by compounds of the invention and for comparison inhibitors CI-1 through CI-8. It can be seen that, at equivalent partition coefficient (Log P) values, the inhibitors useful in the invention show higher inhibition strength than the controls. Alternatively, at approximately equal inhibition strength, inhibitors of the invention have lower partition coefficients.

Point of comparison: CCCCCCN(CCCCCC)c1nn[nH]n1 [CI-5, reference compound], “Inhibition Strength No.” value 52. Against it:
- CCCCSCCCCCCc1nn[nH]n1 [Compound I-51] — higher, 83
- CCn1nnnc1S [CI-2, reference compound] — lower, 15
- O=C(Oc1ccccc1)c1ccc2[nH]nnc2c1 [CI-7, reference compound] — lower, 40
- CCCCCCCCSCCc1nn[nH]n1 [Compound I-21] — higher, 95
- CCSCCSCCCc1nn[nH]n1 [Compound I-134] — higher, 77
- CCCSc1ccc2[nH]nnc2c1 [Compound I-138] — higher, 69
- CCCCCCSCCCc1nn[nH]n1 [Compound I-23] — higher, 77
- CCCCCCCCc1nn[nH]n1 [CI-3, reference compound] — lower, 18
- CCCSCCSCc1ccccc1-c1nn[nH]n1 [Compound I-136] — higher, 84
- CCCCCOc1ccc(-c2nn[nH]n2)cc1 [CI-6, reference compound] — lower, 16
- CCCCCCCCCSCc1nn[nH]n1 [Compound I-5] — higher, 95
- CCCCSCCCOc1ccc(-c2nn[nH]n2)cc1 [Compound I-26] — higher, 67
- CCCCCCCCCSc1nn[nH]n1 [CI-4, reference compound] — lower, 43
- CCCCSCCN(CCSCCCC)c1nn[nH]n1 [Compound I-37] — higher, 66
- CCOc1cc2nn[nH]c2cc1OCC [CI-8, reference compound] — lower, 35
- Sc1nnnn1-c1ccccc1 [CI-1, phenylmercaptotetrazole, reference compound] — higher, 80
- CCCSCCCc1nn[nH]n1 [Compound I-24] — lower, 20
- CSCCSc1ccc2[nH]nnc2c1 [Compound I-139, 6'-(2-methylthioethylthio)benzotriazole] — higher, 88
- CCCSCCOC(=O)c1ccc2[nH]nnc2c1 [Compound I-137] — higher, 86
- CCCCCCCSCCCc1nn[nH]n1 [Compound I-22] — higher, 94
